pIC50: −log10 of the molar value. Blank lines part the entries; values can stand above or below the compound they belong to.
Experiments:
PC-3 = test: cells; details: Homo sapiens
Description: Antitumor activity against human PC3 cells

DuPro = test: Antitumor activity against human DuPro cells; type: functional, cell-based
NCI-H69 = test: Antitumor activity against human H69 cells; type: functional, cell-based
NCI-H157 = test: Antitumor activity against human NCI-H157 cells by MTT assay; type: functional, cell-based
A549 = test: Antitumor activity against human A549 cells; type: functional, cell-based
[1] = Antitumor activity against human H82 cells; type: functional, cell-based; details: NCI-H82
[2] = molecular target: T1, Histone deacetylase (Homo sapiens) (UniProt Q13547+O15379+Q9UBN7+Q92769+Q9UQL6+Q8WUI4+Q9BY41+Q96DB2+P56524+Q9UKV0+Q969S8); details: HeLa, at 5 µM
Description: Inhibition of HDAC from human HeLa cells assessed as of histone H3 acetylation at 5 uM

MCF-10A = test: cells; type: functional, cell-based; details: Homo sapiens
Description: Antitumor activity against human MCF10A cells

MCF7 = test: cells; type: functional, cell-based; details: Homo sapiens
Description: Antitumor activity against human MCF7 cells

DU-145 = test: Antitumor activity against human DU145 cells; type: functional, cell-based
LNCaP = test: Antitumor activity against human LNCAP cells; type: functional, cell-based
cells = details: Mus musculus, ML1
Description: Antitumor activity against mouse ML1 cells

[3] = molecular target: T1, Histone deacetylase (Homo sapiens); test: Inhibition of HDAC from human HeLa cells assessed as induction of histone H3 acetylation at 1 uM; type: cell-based
[4] = molecular target: T1, Histone deacetylase (Homo sapiens); test: Inhibition of HDAC from human HeLa cells assessed as fold induction of alpha tubulin acetylation; type: cell-based
[5] = Antitumor activity against human U251MG cells; type: functional, cell-based; details: U-251
HT-29 = test: Antitumor activity against human HT-29 cells; type: functional, cell-based
Malme-3M = test: Antitumor activity against human MALME-3M cells; type: functional, cell-based

SMILES: CCCCCCCCCCCCCC1CC(=O)NCCCNCCCCNCCCN1 (stereo not drawn) [BUDMUNCHIAMINE L4]
pIC50 (PC-3): 6.22 | pIC50 (DuPro): 6.22

SMILES: Nc1ccccc1NC(=O)c1ccc(CNC(=O)CCCCCCCC(=O)NCCCNCCCCNCCC(c2ccccc2)c2ccccc2)cc1
inhibition [2]: 47% | pIC50 (MCF-10A): < 4.52 | pIC50 (MCF7): < 4.52

SMILES: CCNCCCCNCCCCNCCCCNCCCCNCC
pIC50 (DU-145): 7.00 | pIC50 (PC-3): 7.00 | pIC50 (LNCaP): 7.00

SMILES: O=C(CCCCCCC(=O)NCCCNCCCCNCCC(c1ccccc1)c1ccccc1)NO
pIC50 (cells): 5.00 | inhibition [3]: 75%

SMILES: FC(F)(F)Sc1ccc(CNCCCNCCCNCCCNCc2ccc(SC(F)(F)F)cc2)cc1
pIC50 (NCI-H157): 5.44

SMILES: c1ccc(C(CCNCCCCNCCCNCCC(c2ccccc2)c2ccccc2)c2ccccc2)cc1
pIC50 (NCI-H157): 5.34

SMILES: CC(C)(C)c1ccc(CNCCCCNCCCNC(=O)CCCCCC(=O)NO)cc1
fold change (FC) [4]: 253

SMILES: c1ccc(C(CCNCCCNCCCCNCCCNCCC(c2ccccc2)c2ccccc2)c2ccccc2)cc1
pIC50 (NCI-H157): 5.42

SMILES: CC1(C)C2CCC(CNCCCNCCCNCCCNCC3CCC4CCC3C4(C)C)C1CC2 (stereo not drawn)
pIC50 (NCI-H157): 5.55

SMILES: Cc1ccc(CNCCCCNC(=O)CCCCCC(=O)NCc2ccc(C(=O)Nc3ccccc3N)cc2)cc1
inhibition [2]: 48.1% | pIC50 (MCF-10A): 4.62 | pIC50 (MCF7): 6.05

SMILES: CCNC/C=C\CNCCCCNCCCCNC/C=C\CNCC
pIC50 (DU-145): 6.85 | pIC50 (PC-3): 6.85 | pIC50 (DuPro): 6.85 | pIC50 (LNCaP): 6.85

SMILES: c1ccc(C(CCNCCCNCCCNCCCNCCC(c2ccccc2)c2ccccc2)c2ccccc2)cc1
pIC50 (NCI-H157): 5.39

SMILES: c1ccc(-c2ccccc2CNCCCCNCCCNCc2ccccc2-c2ccccc2)cc1
pIC50 (NCI-H157): 5.40

SMILES: CCNC/C=C\CNCCCCNCCCCNCCCCNCC
pIC50 (DU-145): 6.60 | pIC50 (PC-3): 7.10 | pIC50 (DuPro): 7.10 | pIC50 (LNCaP): 7.10

SMILES: C(CCCNCCCNCC1CCCCCC1)CCCNCCCNCC1CCCCCC1
pIC50 (NCI-H157): 5.54

SMILES: O=C(CCCCCCC(=O)NCc1ccc(C(=O)O)cc1)NCCCNCCCCNCC(c1ccccc1)c1ccccc1
inhibition [2]: 72.6% | pIC50 (MCF-10A): < 4.52 | pIC50 (MCF7): < 4.52

SMILES: CCNCCCCNCCCCNCCCCNCCCCNC/C=C/CNCCCCNCCCCNCCCCNCCCCNCC
pIC50 (DU-145): 7.05 | pIC50 (PC-3): 7.05 | pIC50 (DuPro): 7.05 | pIC50 (LNCaP): 7.05

SMILES: Cc1cccc(NC(=O)c2ccc(CNC(=O)CCCCCCC(=O)NCCCNCCCCNCCC(c3ccccc3)c3ccccc3)cc2)c1
inhibition [2]: 42.6% | pIC50 (MCF-10A): < 4.52 | pIC50 (MCF7): < 4.52

SMILES: c1ccc(-c2ccccc2CNCCCNCCCNCCCNCc2ccccc2-c2ccccc2)cc1
pIC50 (NCI-H157): 5.38

SMILES: CC(C)(C)c1ccc(CNCCCCNC(=O)CCCCCCC(=O)c2ncco2)cc1
inhibition [2]: 43.7% | pIC50 (MCF-10A): < 4.52 | pIC50 (MCF7): 4.57

The next lines start with the values.

pIC50 (NCI-H69): 6.05 | pIC50 (NCI-H157): 5.74 | pIC50 (A549): 6.05 | pIC50 [1]: 6.05
SMILES: CCNCCCNCCCCNCCCNCCC(C)(C)C

pIC50 (NCI-H157): 5.66
SMILES: CCCCNCCCCNCCCCNCCCNCC

pIC50 (NCI-H157): 6.10
SMILES: CCNCCCNCCCNCCCNCC(CC)CC

pIC50 (NCI-H69): 6.10 | pIC50 (NCI-H157): 5.89 | pIC50 (A549): 6.10 | pIC50 [1]: 6.10
SMILES: CCNCCCNCCCNCCCNC(C)CC (stereo not drawn)

pIC50 (NCI-H157): 5.77
SMILES: CCNCCCNCCCCNCCCNCCC(C)C

pIC50 (NCI-H157): 5.85
SMILES: CCSCCNCCCNCCCNCCCNCCSCC

pIC50 (NCI-H157): 5.89 | pIC50 [1]: 5.89
SMILES: CCNCCCNCCCNCCCNC[C@@H](C)CC

pIC50 (NCI-H157): 5.51
SMILES: CCNCCCNCCCCNCCCNCC(CC)CC

pIC50 (NCI-H157): 6.52
SMILES: CCNCCCNCCCNCCCNCCSc1ccccc1

pIC50 (NCI-H157): 5.85
SMILES: CCNCCCNCCCNCCCNC(C)C

pIC50 (NCI-H157): 6.52
SMILES: CCNCCCNCCCNCCCNCCSCC

pIC50 (DU-145): < 4.52 | pIC50 (PC-3): < 4.52 | pIC50 [5]: < 4.52 | pIC50 (A549): < 4.52 | pIC50 (HT-29): < 4.52 | pIC50 (MCF7): < 4.52
SMILES: CCNCCCNCC#CCNCCCNCC

pIC50 (Malme-3M): 6.00
SMILES: CCNCCCCNCCCCNCCCCNCC [DIETHYLHOMOSPERMINE]

Source: ChEMBL document CHEMBL1158462, “Recent advances in the development of polyamine analogues as antitumor agents” (J Med Chem, 2009)
